Columns and labels:
[1] = target: ERβ LBD (Homo sapiens, UniProt Q92731); assay: DSF on purified ERβ LBD; settings: compound 500 µM; unliganded Tm ∼51°C
Protocol: Protein stability was assessed with DSF in absence or presence of test compounds in a LightCycler 480 II qRT-PCR Detection System (Roche) in 384-well format. Sypro-Orange dye (Life Technologies) was used to monitor fluorescence, with filters for fluorescence excitation at 465 nm and for fluorescence emission at 610 nm. […] Tested sample mixtures were heated from 25°C to 96°C at a rate of 0.05°C/sec with 11 acquisitions per °C. Each compound was tested in duplicates. The melting temperature (Tm) for each sample was deduced by the ThermoQ Analytical software (HMRI) from the first derivative of the corresponding denaturation curve generated by the LightCycler 480 software. The same protocol was applied to investigate the stability of purified ERβ and LXRβ LBDs in presence or absence of the compounds. The optimal final concentrations for these experiments were 0.02 mg/mL for ERβ LBD and 0.20 mg/mL for LXRβ LBD. All DSF-based analyses were performed using freshly purified protein.

[2] = target: TLX LBD (Homo sapiens, UniProt Q9Y466); assay: Differential scanning fluorimetry (DSF) on purified TLX LBD;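 also: thermal unfolding followed by Sypro-Orange fluorescence (excitation 465 nm, emission 610 nm) in 384-well plates, Tm taken from the first derivative of the denaturation curve, duplicate samples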; format: binding; set-up: cDNA fragments encoding human TLX LBD (a.a. 187–385) were cloned; His6 followed by TEV protease cleavage site (N); made in house; host or cells: E. coli BL21 (DE3) star; settings: compound 500 µM
Sequence of TLX LBD (Q9Y466 187-385): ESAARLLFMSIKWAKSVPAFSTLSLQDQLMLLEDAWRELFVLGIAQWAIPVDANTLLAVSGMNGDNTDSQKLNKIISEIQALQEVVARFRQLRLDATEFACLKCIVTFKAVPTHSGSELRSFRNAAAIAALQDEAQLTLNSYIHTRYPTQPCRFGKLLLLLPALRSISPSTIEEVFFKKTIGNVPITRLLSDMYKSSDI
Protocol: Protein stability was assessed with DSF in absence or presence of test compounds in a LightCycler 480 II qRT-PCR Detection System (Roche) in 384-well format. Sypro-Orange dye (Life Technologies) was used to monitor fluorescence, with filters for fluorescence excitation at 465 nm and for fluorescence emission at 610 nm. […] Each compound was tested in duplicates. The melting temperature (Tm) for each sample was deduced by the ThermoQ Analytical software (HMRI) from the first derivative of the corresponding denaturation curve generated by the LightCycler 480 software. […] All DSF-based analyses were performed using freshly purified protein.

Sequence of ERβ LBD (Q92731 261-530): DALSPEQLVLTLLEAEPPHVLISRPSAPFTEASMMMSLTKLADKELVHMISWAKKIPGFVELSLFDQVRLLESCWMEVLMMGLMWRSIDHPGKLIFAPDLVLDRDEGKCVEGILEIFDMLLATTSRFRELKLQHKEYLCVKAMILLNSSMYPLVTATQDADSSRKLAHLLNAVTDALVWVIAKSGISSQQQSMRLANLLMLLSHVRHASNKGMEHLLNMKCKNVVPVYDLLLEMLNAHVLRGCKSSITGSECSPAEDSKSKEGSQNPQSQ

Row | Compound | melting temperature shift of ERβ LBD [1] | hit in DSF screen (able to bind TLX LBD, Tm shift 0.9°C or more), Table S1 [2]
1 | C[C@]12CC[C@@H]3c4ccc(O)cc4CC[C@H]3[C@@H]1CC[C@@H]2O [E2, estradiol] | shifted upward | 
2 | COc1cc2c(cc1O)CC[C@@H]1[C@@H]2CC[C@]2(C)[C@@H](O)CC[C@@H]12 [2-Methoxyestradiol] |  | Hits from DSF
3 | CN(C)c1ccc(C=CC(=O)[O-])cc1.CN(C)c1ccc(C=CC(=O)[O-])cc1.[Cu+2] [copper 3-(4-dimethylaminophenyl)prop-2-enoate] |  | Hits from DSF
4 | O=NN(CCCl)C(=O)NCc1ccc[n+]([O-])c1 [1-(2-chloroethyl)-1-nitroso-3-[(1-oxidopyridin-1-ium-3-yl)methyl]urea] |  | Hits from DSF
